Read-outs that look alike come from different tables or passages of the source. Values belong to the compound of their own block, whether it stands above or below them.
Assays:
A2BAR [1] = target: T1, A2BAR (Homo sapiens, UniProt P29275); experiment: cAMP accumulation in T24 cells endogenously expressing the A2BAR; conditions: for Emax: T-24, read-out: Max effect cAMP (% of effect of NECA)
T1 sequence (P29275 1-332): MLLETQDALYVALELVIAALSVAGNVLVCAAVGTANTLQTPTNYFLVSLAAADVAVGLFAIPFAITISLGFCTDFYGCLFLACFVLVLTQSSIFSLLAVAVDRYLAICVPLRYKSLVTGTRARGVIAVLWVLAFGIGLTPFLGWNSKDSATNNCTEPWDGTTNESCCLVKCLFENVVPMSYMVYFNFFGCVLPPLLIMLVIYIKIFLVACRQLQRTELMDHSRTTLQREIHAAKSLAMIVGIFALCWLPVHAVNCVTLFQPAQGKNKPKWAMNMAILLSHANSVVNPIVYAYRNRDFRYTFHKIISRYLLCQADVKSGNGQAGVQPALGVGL

A2BAR [2] = target: T1, A2BAR; experiment: ERK1/2 phosphorylation in T24 cells; conditions: for Emax: T-24, read-out: Max effect ERK1/2 (% of effect of NECA)
A2BAR [3] = target: T1, A2BAR; experiment: cAMP accumulation in WM266 melanoma cells endogenously expressing the A2BAR; conditions: for Emax: WM266, read-out: Max effect cAMP accumulation
A2BAR [4] = target: T1, A2BAR; experiment: Intracellular calcium mobilization in HEK293 cells; conditions: HEK293, read-out: Max effect Calcium (% of effect of NECA)
A2BAR [5] = target: T1, A2BAR; experiment: cAMP accumulation in 1321N1 astrocytoma cells endogenously expressing the A2BAR; conditions: for Emax: 1321-N1, read-out: Max effect cAMP accumulation
A2BAR [6] = target: T1, A2BAR; experiment: cAMP accumulation in HEK293 cells endogenously expressing the A2BAR; conditions: for Emax: HEK293, read-out: Max effect cAMP (% of effect of NECA)
A2BAR [7] = target: T1, A2BAR; experiment: Intracellular calcium mobilization in T24 cells; conditions: for Emax: T-24, read-out: Max effect Calcium (% of effect of NECA)
A2BAR [8] = experiment: cAMP accumulation in COS-7 cells endogenously expressing the A2BAR; conditions: for Max effect cAMP accumulation: NECA = 100; for EC50: read-out: EC50 cAMP accumulation
mouse A2BAR [9] = target: T2, mouse A2BAR (Mus musculus, UniProt Q60614); experiment: β-Arrestin2 translocation in PathHunter CHO cells; conditions: for Emax: CHO, read-out: Max effect β-arrestin (% of effect of NECA); for log (τ/KA) / τ / Δlog (τ/Ka): β-Arrestin pathway; for τ: operational model, CHO mouse A2BAR; for Δlog (τ/Ka): relative to NECA
T2 sequence (Q60614 1-332): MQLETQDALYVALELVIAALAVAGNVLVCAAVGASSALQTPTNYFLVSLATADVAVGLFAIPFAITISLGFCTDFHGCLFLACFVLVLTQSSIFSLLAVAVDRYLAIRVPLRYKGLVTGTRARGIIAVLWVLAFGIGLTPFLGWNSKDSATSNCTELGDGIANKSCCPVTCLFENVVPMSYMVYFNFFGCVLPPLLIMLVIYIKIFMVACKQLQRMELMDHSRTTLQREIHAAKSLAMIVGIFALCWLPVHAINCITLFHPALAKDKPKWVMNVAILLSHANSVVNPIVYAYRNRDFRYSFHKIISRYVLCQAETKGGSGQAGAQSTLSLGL

mouse A2BAR [10] = experiment: β-Arrestin2 translocation in PathHunter CHO cells; conditions: for ΔΔlog (τ/KA): β-Arrestin versus cAMP reference pathway; for Bias: β-Arrestin versus cAMP, bias ≫1 disfavors the pathway
A2BAR [11] = target: T1, A2BAR; experiment: ERK1/2 phosphorylation in HEK293 cells overexpressing the A2BAR; conditions: for log (τ/KA) / τ / Δlog (τ/Ka): ERK1/2 pathway; for τ: operational model, A2BAR-overexpressing HEK293; for Δlog (τ/Ka): relative to NECA; for ΔΔlog (τ/KA): ERK1/2 versus cAMP reference pathway; for Bias: ERK1/2 versus cAMP, bias ≫1 disfavors the pathway; for Emax: HEK293, read-out: Max effect ERK1/2 (% of effect of NECA)
A2BAR [12] = target: T1, A2BAR; experiment: cAMP accumulation in HEK293 cells overexpressing the A2BAR; conditions: for Emax: HEK293, read-out: Max effect cAMP (% of effect of NECA); for τ: operational model, A2BAR-overexpressing HEK293
A2BAR [13] = target: T1, A2BAR; experiment: Intracellular calcium mobilization in HEK293 cells overexpressing the A2BAR; conditions: for τ: operational model, A2BAR-overexpressing HEK293; for Bias: Calcium versus cAMP, bias ≫1 disfavors the pathway
A2BAR [14] = target: T1, A2BAR; conditions: for Emax: PC-3, read-out: Max effect cAMP accumulation
A2BAR [15] = target: T1, A2BAR; experiment: ERK1/2 phosphorylation in HEK293 cells; conditions: for Emax: HEK293, read-out: Max effect ERK1/2 (% of effect of NECA)
A1 and A3 ARs = experiment: Inhibition of forskolin-stimulated cAMP accumulation

- EC50 (A2BAR [1]): 2.16 ± 0.35 µM
Structure (SMILES): Nc1nc(OCCc2c[nH]c3ccccc23)nc2c1ncn2[C@@H]1O[C@H](CO)[C@@H](O)[C@H]1O [MRS3534, 2-(2-(indol-3-yl)ethyloxy)adenosine]

- ERK1/2 phosphorylation, increase above basal value (A2BAR [2]; T24 cells, 10 μM): ~13%
- Emax (A2BAR [2]): 13.1 ± 4.5%
- EC50 (A2BAR [3]): 1.27 ± 0.22 µM
- Emax (A2BAR [3]): 48.3 ± 4.9%
- Emax (A2BAR [4]): 7.1 ± 3.2%
- EC50 (A2BAR [5]): 1.01 ± 0.18 µM
- Emax (A2BAR [5]): 89.8 ± 9.2%
- EC50 (A2BAR [6]): 1.13 ± 0.34 µM
- Emax (A2BAR [6]): 68.7 ± 11.1%
- EC50 (A2BAR [7]): 6.17 ± 1.99 µM
- Emax (A2BAR [7]): 36.9 ± 8.6%
- EC50 (A2BAR [8]): 0.418 ± 0.022 µM
- EC50 (mouse A2BAR [9]): 48.1 µM
- Kd (mouse A2BAR [9]): 83.4 µM
- Emax (mouse A2BAR [9]): 40.9 ± 2.9%
- log (τ/KA) (mouse A2BAR [9]): 4.10 ± 0.22
- τ (mouse A2BAR [9]): 1.04
- Δlog (τ/Ka) (mouse A2BAR [9]): -1.63 ± 0.20
- EC50 (A2BAR [11]): 2.68 ± 0.46 µM
- Kd (A2BAR [11]): 5.26 µM
- log (τ/KA) (A2BAR [11]): 5.11 ± 0.52
- τ (A2BAR [11]): 0.68
- Δlog (τ/Ka) (A2BAR [11]): -0.52 ± 0.04
- ΔΔlog (τ/KA) (A2BAR [11]): 0.27
- Bias (A2BAR [11]): 1.86
- Emax (A2BAR [11]): 36.3 ± 5.2%
- EC50 (A2BAR [1]): 0.899 ± 0.226 µM
- Emax (A2BAR [1]): 77.7 ± 3.3%
- EC50 (A2BAR [12]): 0.0253 ± 0.0078 µM
- Kd (A2BAR [12]): 7.76 µM
- Emax (A2BAR [12]): 93.2 ± 4.5%
- log (τ/KA) (A2BAR [12]; cAMP pathway): 7.17 ± 0.68
- τ (A2BAR [12]; cAMP pathway): 116
- Δlog (τ/Ka) (A2BAR [12]; cAMP pathway, relative to NECA): -0.25 ± 0.02
- EC50 (A2BAR [13]): 7.15 ± 2.36 µM
- Kd (A2BAR [13]): 84.7 µM
- log (τ/KA) (A2BAR [13]; Calcium pathway): 3.84 ± 0.19
- τ (A2BAR [13]; Calcium pathway): 0.59
- Δlog (τ/Ka) (A2BAR [13]; Calcium pathway, relative to NECA): -1.20 ± 0.13
- Bias (A2BAR [13]): 85
- EC50 (A2BAR [14]): 0.321 ± 0.066 µM
- Emax (A2BAR [14]): 89.4 ± 2.6%
- EC50 (A2BAR [15]): 1.53 ± 0.34 µM
- Emax (A2BAR [15]): 46.1 ± 9.2%
Structure (SMILES): OC[C@H]1O[C@@H](n2cnc3c(Nc4ccc(I)cc4)ncnc32)[C@H](O)[C@@H]1O [MRS5911, N^6-(4-iodophenyl)adenosine]
- Max effect cAMP accumulation (A2BAR [8]): 99.3±2.1%
- ΔΔlog (τ/KA) (mouse A2BAR [10]): 1.38
- Bias (mouse A2BAR [10]): 24

Structure (SMILES): OC[C@H]1O[C@@H](n2cnc3c(NC4CCCC4)ncnc32)[C@H](O)[C@@H]1O [CPA, N^6-cyclopentyladenosine]
- inhibition of forskolin-stimulated cAMP accumulation (A1 and A3 ARs): inactive

- ERK1/2 stimulation (A2BAR [2]; T24 cells): did not produce any stimulation
- Emax (A2BAR [2]): -8.2 ± 7.6%
- EC50 (A2BAR [3]): 1.87 ± 0.32 µM
- Emax (A2BAR [3]): 96.2 ± 1.8%
- Emax (A2BAR [4]): 1.6 ± 2.2%
- EC50 (A2BAR [5]): 1.26 ± 0.18 µM
- Emax (A2BAR [5]): 98.4 ± 3.1%
- EC50 (A2BAR [6]): 1.02 ± 0.25 µM
- Emax (A2BAR [6]): 96.2 ± 24.3%
- Emax (A2BAR [7]): -2.7 ± 3.2%
- EC50 (A2BAR [8]): 0.226 ± 0.032 µM
- Kd (mouse A2BAR [9]): 18.1 µM
- Emax (mouse A2BAR [9]): 28.1 ± 3.5%
- log (τ/KA) (mouse A2BAR [9]): 4.17 ± 0.23
- τ (mouse A2BAR [9]): 0.27
- Δlog (τ/Ka) (mouse A2BAR [9]): -1.56 ± 0.18
- EC50 (A2BAR [11]): 0.203 ± 0.048 µM
- Kd (A2BAR [11]): 0.362 µM
- log (τ/KA) (A2BAR [11]): 6.08 ± 0.89
- τ (A2BAR [11]): 0.44
- Δlog (τ/Ka) (A2BAR [11]): 0.45 ± 0.03
- ΔΔlog (τ/KA) (A2BAR [11]): 0.14
- Bias (A2BAR [11]): 1.38
- Emax (A2BAR [11]): 29.7 ± 2.6%
- EC50 (A2BAR [1]): 0.745 ± 0.225 µM
- Emax (A2BAR [1]): 94.9 ± 2.2%
- EC50 (A2BAR [12]): 0.0629 ± 0.0076 µM
- Kd (A2BAR [12]): 6.7 µM
- Emax (A2BAR [12]): 102 ± 6.6%
- log (τ/KA) (A2BAR [12]; cAMP pathway): 6.83 ± 0.45
- τ (A2BAR [12]; cAMP pathway): 45.1
- Kd (A2BAR [13]): 7.1 µM
- log (τ/KA) (A2BAR [13]; Calcium pathway): 3.35 ± 0.44
- τ (A2BAR [13]; Calcium pathway): 0.02
- ΔΔlog (τ/KA) (A2BAR [13]; Calcium versus cAMP reference pathway): 4.06
- Bias (A2BAR [13]): 11500
- EC50 (A2BAR [14]): 0.48 ± 0.032 µM
- Emax (A2BAR [14]): 98.2 ± 7.7%
- EC50 (A2BAR [15]): 0.166 ± 0.032 µM
- Emax (A2BAR [15]): 42.3 ± 9.4%
Structure (SMILES): Nc1nc(OCCc2c[nH]c3cc(Br)ccc23)nc2c1ncn2[C@@H]1O[C@H](CO)[C@@H](O)[C@H]1O [MRS3997, 2-(2-(6-bromo-indol-3-yl)ethyloxy)adenosine]
- Max effect cAMP accumulation (A2BAR [8]): 100±6%
- ΔΔlog (τ/KA) (mouse A2BAR [10]): 2.15
- Bias (mouse A2BAR [10]): 141

- EC50 (A2BAR [1]): 9.1 ± 5.8 µM
Structure (SMILES): Nc1nc(Nc2ccccc2)nc2c1ncn2[C@@H]1O[C@H](CO)[C@@H](O)[C@H]1O [CV1808, 2-phenylaminoadenosine]

Structure (SMILES): CCNC(=O)[C@H]1O[C@@H](n2cnc3c(N)ncnc32)[C@H](O)[C@@H]1O [NECA, adenosine-5′-N-ethyluronamide]
- Max effect β-arrestin (% of effect of NECA) (mouse A2BAR [9]; PathHunter CHO cells, mouse A2BAR): 100%
- τ (mouse A2BAR [9]): 38.9
- Bias (mouse A2BAR [10]): 1.00

Reference: PMC4128710 (Biochemical pharmacology, 2014)
